Molecules are shown by their SMILES.

The test system of test [1] is LPA-induced neuropathic pain in C57/Bl6 mice. In words: Lysophosphatidic acid (LPA)-induced neuropathy, mechanical hyperalgesia (digital Randall-Selitto). Conditions: 1 hour after dosing. The format is in vivo, mouse. As for the experimental part:
The therapeutic effects of the compounds of the present invention were assessed in the lysophosphatidic acid (LPA)-induced neuropathy in mice. This model is commonly used to evaluate the potential analgesic activity of compounds designed to treat neuropathic pain in humans (Inoue et al. (2004) Nat Med 10: 712-718; Inoue et al. (2008). Mol Pain 4(6) doi:10.1186/1744-8069-4-6). In this example, a representative compound of the invention, 4-chloro-N-(cycloheptylmethyl)-1-(2-hydroxyethyl)-1H-indole-3-carboxamide (Example 54), was tested.
Neuropathic pain was induced in male, C57/Bl6 mice (Harlan) by an intrathecal injection of 1 nmol LPA (prepared in saline; ENZO) in a 5 μL volume into the spinal cord. Pre-LPA injection, post-LPA injection and post-treatment values for mechanical hyperalgesia were evaluated using a digital Randall-Selitto device (dRS; IITC Life Sciences). Paw compression threshold was measured once at each time point for the left and right paws. […] The readings from the left and right paws were averaged at each time point. […]
Vehicle (0.5% carboxymethylcellulose (CMC)) or between 125-500 mg/kg of a compound of the present invention (dissolved in 0.5% CMC) were administered via oral gavage two days after LPA injection. […] If a significant main effect was detected, Dunnetts' post hoc test was used to compare treatment to vehicle treated animals. […]

Test [2] relates to EAE in SJL mice. In words: Relapsing-remitting experimental autoimmune encephalomyelitis (EAE), PLP139-151/CFA model of multiple sclerosis. It counts as in vivo, mouse. As to conditions: SJL female mice. The protocol:
The therapeutic effects of the compounds of the present invention were assessed in a mouse model of relapsing-remitting multiple sclerosis MS. The relapsing-remitting experimental autoimmune encephalomyelitis (EAE) which develops in SJL mice after immunization with the Proteolipid Protein PLP139-151 and Complete Freund's Adjuvant (CFA) is the mouse model which most closely resembles human remitting/relapsing MS (see Webb et al (2004) J Neuroimmunol 153:108-121). In this example, a representative compound of the invention, 4-chloro-N-(cycloheptylmethyl)-1-(2-hydroxyethyl)-1H-indole-3-carboxamide (Example 54), was tested.
EAE was induced in SJL female mice (Jackson Labs), using a PLP139-151/CFA Emulsion (Hooke Laboratories, Lawrence Mass.) according to the manufacturer's recommended protocol. Mice were injected subcutaneously at four sites (0.05 mL at each site) in the back with the emulsion. Two sites of injection were in the area of the upper back, approximately 1 cm caudal of the neck line. The other two sites were in the area of the lower back, approximately 2 cm cranial of the base of the tail. Individual animals were then examined daily for clinical signs of neurological deficits scored on a 0 to 5 scale as follows: 0, no abnormality; 0.5, stiff tail; 1, limp tail; 1.5, limp tail with inability to right; 2, paralysis of one limb; 2.5, paralysis of one limb and weakness of one other limb; 3, complete paralysis of both hind limbs; 4, moribund; 5, death. Daily scoring for signs of EAE started on Day 7 after immunization with the first symptoms observed between Days 11 and 15 after immunization. Treatment for each animal began on the second day that the animal developed EAE symptoms. […] The effect of treatment on development of EAE relapses was evaluated by comparing incidence and severity of relapses, and the end scores between the compound-treated groups and the vehicle group. Incidence of relapse were compared using two-tailed Fisher's exact test and the end scores between vehicle and treatment groups were calculated using Wilcoxon's non-parametric test. […]

With `NCC1(CC(=O)O)CCCCC1` [gabapentin, reference compound], in test [1] (100 mg/kg intraperitoneal two days after LPA injection), the “mechanical hyperalgesia (paw compression thresholds) compared to pre-treatment baseline” value was “slight decrease in mechanical hyperalgesia”.

As for `O=C(NCC1CCCCCC1)c1cn(CCO)c2cccc(Cl)c12` [Example 54, 4-chloro-N-(cycloheptylmethyl)-1-(2-hydroxyethyl)-1H-indole-3-carboxamide], the “treated animals that developed relapses” value in test [2] (125 to 500 mg/kg twice daily oral gavage from second day of EAE symptoms, vehicle 50.0%, p=0.0038) was 6%. For the same molecule, the “average EAE score on Day 40 (end of the study)” value in test [2] (125 to 500 mg/kg twice daily oral gavage, 0 to 5 scale, vehicle 1.34, p=0.0021) was 0.50. Moreover, the “day of relapse (the one mouse of the group that relapsed)” value in test [2] (125 to 500 mg/kg twice daily oral gavage, vehicle mean day of relapse 22, delay p=0.0039) is 40 days. Further, the “mean paw compression thresholds compared to pre-treatment baseline” value in test [1] (125-500 mg/kg oral gavage two days after LPA injection, p<0.05) is “significantly increased mean paw compression thresholds”.

Source of the values: patent US8815892B2, “P2X7R antagonists and their use” (Affectis Pharmaceuticals AG, priority 2008, dated 2014).
